Data from ChEMBL document CHEMBL3400055, “(+)- and (-)-liriodenol, a pair of novel enantiomeric lignans from Liriodendron hybrid” (Bioorg Med Chem Lett, 2015).
Values after ≈ are worked out from the molar mass of the structure shown.

Legend:
Format in all cases: functional, cell-based
NCI-H460 = experiment: Cytotoxic activity against human NCI-H460 cells after 48 hrs by MTT assay; settings: NCI-H460, 48 h
[1] = Cytotoxic activity against human BGC823 cells after 48 hrs by MTT assay; settings: BGC-823, 48 h
[2] = Cytotoxic activity against human SGC7901 cells after 48 hrs by MTT assay; settings: SGC-7901, 48 h
MDA-MB-231 = experiment: Cytotoxic activity against human MDA-MB-231 cells after 48 hrs by MTT assay; settings: MDA-MB-231, 48 h

SMILES	IC50 (NCI-H460)	IC50 [1]	IC50 [2]	IC50 (MDA-MB-231)
C=C(C(=O)c1cc(OC)c(O)c(OC)c1)[C@@H](CO)C(=O)c1cc(OC)c(O)c(OC)c1	31.4 µg/mL (≈ 72.7 µM)	45.5 µg/mL (≈ 105 µM)	34.5 µg/mL (≈ 79.7 µM)	28.7 µg/mL (≈ 66.3 µM)
C=C(C(=O)c1cc(OC)c(O)c(OC)c1)[C@H](CO)C(=O)c1cc(OC)c(O)c(OC)c1	63.4 µg/mL (≈ 147 µM)	> 100 µg/mL	> 100 µg/mL	53.3 µg/mL (≈ 123 µM)
C=C(C(=O)c1cc(OC)c(O)c(OC)c1)C(CO)C(=O)c1cc(OC)c(O)c(OC)c1 (racemic)	58.1 µg/mL (≈ 134 µM)	58.9 µg/mL (≈ 136 µM)	67.5 µg/mL (≈ 156 µM)	51.4 µg/mL (≈ 119 µM)
